In PubChem BioAssay AID256 (DTP/NCI, 2004):
“And” between values parts separate entries of the source, which are not always exact repeats. Identical values can stand only once. Inconclusive results and toxic doses are left out. Rule for the calls: active = survival T/C of 150% or more; inactive = T/C below 125% in these data.

System: CD2F1 mice, L1210 leukemia ip, survival T/C
Assay: NCI In Vivo Anticancer Drug Screen. Data for tumor model L1210 Leukemia (intraperitoneal) in CD2F1 (CDF1) mice
Conditions: higher = longer survival
Outline: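 Ratio T/C, where T is the treated-group value and C the vehicle-dosed control value, from mice implanted with a transplantable tumor.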

[1] = endpoint: mean survival time, dose: 50.0 mg/kg/injection, schedule: Q01DX009 (ip), vehicle: saline with Tween-80
[2] = endpoint: mean survival time, dose: 100.0 mg/kg/injection, schedule: Q01DX009 (ip), vehicle: saline with Tween-80
[3] = endpoint: mean survival time, dose: 100.0 mg/kg/injection, schedule: Q04DX003 (ip), vehicle: saline with Tween-80
[4] = endpoint: mean survival time, dose: 200.0 mg/kg/injection, schedule: Q04DX003 (ip), vehicle: saline with Tween-80
[5] = endpoint: mean survival time, dose: 100.0 mg/kg/injection, schedule: Q04DX003 (ip), vehicle: saline
[6] = endpoint: mean survival time, dose: 200.0 mg/kg/injection, schedule: Q04DX003 (ip), vehicle: saline
[7] = endpoint: mean survival time, dose: 200.0 mg/kg/injection, schedule: Q01DX009 (ip), vehicle: saline with Tween-80
[8] = endpoint: mean survival time, dose: 400.0 mg/kg/injection, schedule: Q01DX009 (ip), vehicle: saline with Tween-80
[9] = endpoint: mean survival time, dose: 400.0 mg/kg/injection, schedule: Q04DX003 (ip), vehicle: saline with Tween-80
[10] = endpoint: mean survival time, dose: 75.0 mg/kg/injection, schedule: Q01DX001 (ip), vehicle: saline
[11] = endpoint: mean survival time, dose: 150.0 mg/kg/injection, schedule: Q01DX001 (ip), vehicle: saline

Measured: T/C

Cc1cc(C2(c3ccc(O)c(C)c3)CCCCC2)ccc1O
inactive: endpoint: mean survival time, dose: 100.0 mg/kg/injection, schedule: Q01DX001 (ip), vehicle: saline with Tween-80 97 % of control | endpoint: mean survival time, dose: 100.0 mg/kg/injection, schedule: Q01DX009 (ip), vehicle: Klucel (hydroxypropylcellulose) (HPC) 95 % of control | endpoint: mean survival time, dose: 200.0 mg/kg/injection, schedule: Q01DX001 (ip), vehicle: saline with Tween-80 94 % of control | endpoint: mean survival time, dose: 200.0 mg/kg/injection, schedule: Q01DX009 (ip), vehicle: Klucel (hydroxypropylcellulose) (HPC) 94 % of control | endpoint: mean survival time, dose: 400.0 mg/kg/injection, schedule: Q01DX001 (ip), vehicle: saline with Tween-80 96 % of control | endpoint: mean survival time, dose: 400.0 mg/kg/injection, schedule: Q01DX009 (ip), vehicle: Klucel (hydroxypropylcellulose) (HPC) 94 % of control

C/C(=C/C#N)c1ccccc1
inactive: [1] 101 % of control | [2] 97 % of control | [3] 100 % of control | [4] 100 % of control

O=c1[nH]ccc2occc12
inactive: [1] 101 % of control | [2] 102 % of control | [3] 105 % of control | [4] 109 % of control

Cc1cccc(Br)[n+]1[O-]
inactive: [5] 92 % of control | [6] 101 % of control

O=C(c1ccc(-c2ccccc2)cc1)C1(Br)CCCCC1
inactive: [2] 102 % of control | [3] 101 % of control | [7] 96 % of control | [4] 102 % of control | [8] 97 % of control | [9] 98 % of control

CNNCCO
inactive: endpoint: mean survival time, dose: 50.0 mg/kg/injection, schedule: Q01DX001 (ip), vehicle: saline 104 % of control | endpoint: mean survival time, dose: 100.0 mg/kg/injection, schedule: Q01DX001 (ip), vehicle: saline 101 % of control | endpoint: mean survival time, dose: 200.0 mg/kg/injection, schedule: Q01DX001 (ip), vehicle: saline 101 % of control

CCCCCCCCCCCC(=O)NC(=S)Nc1cccc(C(F)(F)F)c1
inactive: endpoint: mean survival time, dose: 100.0 mg/kg/injection, schedule: Q01DX009 (ip), vehicle: other 95 % of control | endpoint: mean survival time, dose: 200.0 mg/kg/injection, schedule: Q01DX009 (ip), vehicle: other 103 % of control | endpoint: mean survival time, dose: 400.0 mg/kg/injection, schedule: Q01DX009 (ip), vehicle: other 103 % of control

O=C1[C@H]2CCC[C@H]2[C@H]2CCC[C@@H]12
inactive: endpoint: median survival time, dose: 6.25 mg/kg/injection, schedule: Q01DX009 (ip), vehicle: saline with Tween-80 98 % of control | endpoint: median survival time, dose: 12.5 mg/kg/injection, schedule: Q01DX009 (ip), vehicle: saline with Tween-80 106 % of control | endpoint: median survival time, dose: 25.0 mg/kg/injection, schedule: Q01DX009 (ip), vehicle: saline with Tween-80 98 % of control | endpoint: median survival time, dose: 50.0 mg/kg/injection, schedule: Q01DX009 (ip), vehicle: saline with Tween-80 101 % of control | endpoint: median survival time, dose: 100.0 mg/kg/injection, schedule: Q01DX009 (ip), vehicle: saline with Tween-80 106 % of control | endpoint: median survival time, dose: 200.0 mg/kg/injection, schedule: Q01DX009 (ip), vehicle: saline with Tween-80 97 % of control

COC(=O)[C@]1(C)CCC[C@]2(C)c3cc(C(C)=O)c(C(C)C)cc3CC[C@@H]12
inactive: [2] 97 % of control | [7] 97 % of control | [8] 100 % of control

O=C1CCC(=O)N1CCC1=NCCc2cc(OCc3ccccc3)ccc21
inactive: [2] 101 % of control | [3] 102 % of control | [7] 94 % of control | [4] 94 % of control | [8] 97 % of control | [9] 90 % of control

COC/C=N/N(C)C
inactive: [10] 100 % of control | [11] 96 % of control

Cn1c(=O)[nH]c2c(-c3ccccc3)n[nH]c2c1=O
inactive: endpoint: median survival time, dose: 25.0 mg/kg/injection, schedule: Q04DX003 (ip), vehicle: saline with Tween-80 90 % of control | endpoint: median survival time, dose: 100.0 mg/kg/injection, schedule: Q04DX003 (ip), vehicle: saline with Tween-80 90 % of control | endpoint: median survival time, dose: 200.0 mg/kg/injection, schedule: Q04DX003 (ip), vehicle: saline with Tween-80 90 % of control

C=C1C(O)C2(O)OCC34C(CC5C(C)=CC(=O)C(O)C5(C)C23)OC(=O)C(OC(=O)C/C=C/CCCCCCCC)C14 (configuration not stated)
inactive: endpoint: median survival time, dose: 2.0 mg/kg/injection, schedule: Q01DX005 (ip), vehicle: saline + alcohol 113 % of control | endpoint: median survival time, dose: 4.0 mg/kg/injection, schedule: Q01DX005 (ip), vehicle: saline + alcohol 119 % of control | endpoint: median survival time, dose: 8.0 mg/kg/injection, schedule: Q01DX005 (ip), vehicle: saline + alcohol 119 % of control and 124 % of control

O=C([O][Sb]([O]C(=O)C(Cl)Cl)([c]1ccccc1)([c]1ccccc1)[c]1ccccc1)C(Cl)Cl
inactive: [3] 92 % of control | [4] 88 % of control

CC(NC(=O)c1ccc(Cl)cc1Cl)c1ccccc1 (configuration not stated)
inactive: endpoint: mean survival time, dose: 75.0 mg/kg/injection, schedule: Q04DX003 (ip), vehicle: saline with Tween-80 101 % of control | endpoint: mean survival time, dose: 150.0 mg/kg/injection, schedule: Q04DX003 (ip), vehicle: saline with Tween-80 101 % of control | endpoint: mean survival time, dose: 300.0 mg/kg/injection, schedule: Q04DX003 (ip), vehicle: saline with Tween-80 101 % of control

O=C1C(C(O)c2ccccc2)CCCC1C(O)c1ccccc1 (configuration not stated)
inactive: [3] 89 % of control | [4] 89 % of control | [9] 92 % of control

COc1ccc(NC(=O)CC(C)C(=O)O)cc1 (configuration not stated)
inactive: [3] 101 % of control | [4] 100 % of control | [9] 101 % of control

Cc1cc(C)c(C#[N+][O-])c(C)c1
inactive: endpoint: mean survival time, dose: 12.5 mg/kg/injection, schedule: Q01DX009 (ip), vehicle: saline with Tween-80 97 % of control | endpoint: mean survival time, dose: 25.0 mg/kg/injection, schedule: Q01DX009 (ip), vehicle: saline with Tween-80 94 % of control | [1] 91 % of control

O=C1CC2CC=CCC2C(=O)O1 (configuration not stated)
inactive: [10] 101 % of control | [11] 98 % of control

CC(=O)OC(C)Cc1ccccc1 (configuration not stated)
inactive: [1] 96 % of control | [2] 96 % of control | [7] 100 % of control

OC(c1ccccc1)(c1ccc2ccccc2n1)c1cccs1 (configuration not stated)
inactive: [5] 102 % of control | [6] 90 % of control | endpoint: mean survival time, dose: 400.0 mg/kg/injection, schedule: Q04DX003 (ip), vehicle: saline 90 % of control

NC1=C(Cl)C(=O)c2ccccc2C1=O
inactive: [3] 102 % of control

O=P(Oc1cccc(Br)c1)(Oc1cccc(Br)c1)c1ccccc1
inactive: [3] 98 % of control | [4] 106 % of control | [9] 108 % of control
